The test system of data set [1] is Smn protein. As to the kind of experiment: Smn protein assay in cultured cells (SMN HTRF). The format is cell-based, human. The following applies: 48 hours; for EC1.5x (concentration giving 1.5-fold Smn protein increase): SMA Type 1 patient fibroblast cells (GM03813), 7-point concentration curve, SMN HTRF, concentration producing 1.5 times Smn protein vs DMSO vehicle control, read-out: EC1.5x for Smn protein expression; for maximum fold (Fold) increase of Smn protein: SMA patient fibroblast cells, 7-point concentration data, fold increase relative to vehicle control (SMN HTRF). The procedure, abridged:
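Smn in SMA fibroblast lysates, measured by anti-SMN HTRF after 48 h compound exposure; EC1.5x from fold change over vehicle.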

Data set [2] relates to SMN2 minigene (full length SMN2 minigene mRNA containing SMN2 exon 7). Kind of data set: SMN2 minigene mRNA splicing RT-qPCR assay in cultured cells. Type of data set: cell-based, human. The conditions noted are these: Homo sapiens, HEK293-H, read-out: EC1.5x for production of full length SMN2 mRNA. The procedure, abridged: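 Full-length SMN2 minigene mRNA (exon 7 included), minigene-specific and not endogenous SMN, quantified by RT-qPCR multiplexed with GAPDH in stably transfected HEK293H cells after 24 h compound exposure at 37° C. Abundance from efficiency-corrected Ct, normalized to GAPDH and vehicle; EC1.5x reported as star bins.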
Background: In qPCR the cycle at which signal appears reflects the starting amount.

Where [3] appears, read: HEK293H cells stably transfected with SMN2-A minigene, 24 hours, 7-point concentration curve, 1.5-fold relative to vehicle-treated cells.

Where two headings read alike, the source gives them in different places.

Consider 21 molecules from patent USRE47689E1, “Compounds for treating spinal muscular atrophy” (PTC Therapeutics, Inc., priority 2011, dated 2019).

Usually melting point stands for the temperature, or range, at which the solid turns liquid. The molecule `Cc1cn2cc(-c3cc4ccc(N5CCN6CCC[C@H]6C5)cc4oc3=O)cc2cn1` [Compound 643, 7-[(8aS)-hexahydropyrrolo[1,2-a]pyrazin-2(1H)-yl]-3-(3-methylpyrrolo[1,2-a]pyrazin-7-yl)-2H-chromen-2-one] yielded a melting point of 182 to 184 °C. In data set [1], the EC1.5x (concentration giving 1.5-fold Smn protein increase) is below 300 nM; the “maximum fold (Fold) increase of Smn protein” value (from here on “maximum fold (Fold) increase”) is “**** (fold increase between >1.5 and ≤1.65)”. Further, the EC (1.5-fold) in data set [2] (setting [3]) was below 0.1 µM.

Regarding `Cc1cn2cc(-c3cc4ccc(N5CCN6CCCCC6C5)cc4oc3=O)cc2c(C)n1` (centres unmarked) [Compound 683, 3-(1,3-dimethylpyrrolo[1,2-a]pyrazin-7-yl)-7-(octahydro-2H-pyrido[1,2-a]pyrazin-2-yl)-2H-chromen-2-one], the melting point lay in the range of 145 to 148 °C. For the same molecule, in data set [1], the EC1.5x (concentration giving 1.5-fold Smn protein increase) was below 300 nM; the “maximum fold (Fold) increase” value was “**** (fold increase between >1.5 and ≤1.65)”. Besides, the EC (1.5-fold) in data set [2] (setting [3]) was below 0.1 µM.

Molecule `CCN(CC)C1CN(c2ccc3cc(-c4cn5cc(C)nc(C)c5n4)c(=O)oc3c2)C1` [Compound 944, 7-[3-(diethylamino)azetidin-1-yl]-3-(6,8-dimethylimidazo[1,2-a]pyrazin-2-yl)-2H-chromen-2-one] registered a melting point of 218 to 220 °C. Also, in data set [1], the EC1.5x (concentration giving 1.5-fold Smn protein increase) lay within 300 to 1000 nM; the “maximum fold (Fold) increase” value is “**** (fold increase between >1.5 and ≤1.65)”. Besides, the EC (1.5-fold) in data set [2] (setting [3]) was below 0.1 µM.

`C[C@H]1CN(c2ccc3cc(-c4cn5cc(C6CC6)cc(F)c5n4)c(=O)oc3c2)CCN1` [Compound 498, 3-(6-cyclopropyl-8-fluoroimidazo[1,2-a]pyridin-2-yl)-7-[(3S)-3-methylpiperazin-1-yl]-2H-chromen-2-one] showed a melting point of 254 to 263 °C. Further, the “maximum fold (Fold) increase” value in data set [1] is “* (maximum fold increase of ≤1.2)”. For the same molecule, the EC (1.5-fold) in data set [2] (setting [3]) lay in the range of 0.3 to 1 µM.

Take `Cc1cn2cc(-c3cc4ccc(CCCN5CCOCC5)cc4oc3=O)nc2c(C)n1` [Compound 884, 3-(6,8-dimethylimidazo[1,2-a]pyrazin-2-yl)-7-[3-(morpholin-4-yl)propyl]-2H-chromen-2-one]: the melting point lay in the range of 168 to 172 °C. Also, in data set [1], the EC1.5x (concentration giving 1.5-fold Smn protein increase) is below 300 nM and the “maximum fold (Fold) increase” value is on record as “***** (fold increase >1.65)”. The EC (1.5-fold) in data set [2] (setting [3]) was below 0.1 µM.

`CN(C)CCN(C)c1ccc2cc(-c3nc4ccccc4s3)c(=O)oc2c1` [Compound 146, 3-(1,3-benzothiazol-2-yl)-7-{[2-(dimethylamino)ethyl](methyl)amino}-2H-chromen-2-one] registered a melting point of 155 to 157 °C. For the same molecule, the “maximum fold (Fold) increase” value in data set [1] is recorded as “* (maximum fold increase of ≤1.2)”. For the same molecule, the EC (1.5-fold) in data set [2] (setting [3]) lay in the range of 0.3 to 1 µM.

Molecule `Cc1cn2cc(-c3cc4ccc(N5CCN6C[C@H](O)C[C@H]6C5)cc4oc3=O)nc2c(C)n1` [Compound 758, 3-(6,8-dimethylimidazo[1,2-a]pyrazin-2-yl)-7-[(7R,8aS)-7-hydroxyhexahydropyrrolo[1,2-a]pyrazin-2(1H)-yl]-2H-chromen-2-one] yielded a melting point of 285 to 287 °C. For the same molecule, the “maximum fold (Fold) increase” value in data set [1] was “* (maximum fold increase of ≤1.2)”. For the same molecule, the EC (1.5-fold) in data set [2] (setting [3]) lay in the range of 0.3 to 1 µM.

`O=c1oc2cc(N3CCNCC3)ccc2cc1-c1cccs1` [Compound 363, 7-(piperazin-1-yl)-3-(thiophen-2-yl)-2H-chromen-2-one] gave a melting point of 193 to 195 °C. In addition, the “maximum fold (Fold) increase” value in data set [1] was “** (fold increase between >1.2 and ≤1.35)”. Further, the EC (1.5-fold) in data set [2] (24 h) lay in the range of 1 to 3 µM.

`CCN1CC[C@@H](Oc2ccc3cc(-c4cn5cc(C)nc(C)c5n4)c(=O)oc3c2)C1` [Compound 890, 3-(6,8-dimethylimidazo[1,2-a]pyrazin-2-yl)-7-{[(3R)-1-ethylpyrrolidin-3-yl]oxy}-2H-chromen-2-one] registered a melting point of 193 to 195 °C. For the same molecule, in data set [1], the EC1.5x (concentration giving 1.5-fold Smn protein increase) was below 300 nM and the “maximum fold (Fold) increase” value is “***** (fold increase >1.65)”. The EC (1.5-fold) in data set [2] (setting [3]) is below 0.1 µM.

The molecule `Cc1ccc2nc(-c3cc4cc(F)c(N5CCNCC5)cc4oc3=O)cn2c1` [Compound 158, 6-fluoro-3-(6-methylimidazo[1,2-a]pyridin-2-yl)-7-(piperazin-1-yl)-2H-chromen-2-one] had a melting point of 245 to 250 °C. Moreover, the “maximum fold (Fold) increase” value in data set [1] was “** (fold increase between >1.2 and ≤1.35)”. In data set [2] (setting [3]), the EC (1.5-fold) lay in the range of 1 to 3 µM.

Regarding `Cc1cn2cc(-c3cc4ccc(N5C[C@H]6CN(CCO)C[C@H]6C5)cc4oc3=O)nc2c(C)n1` [Compound 741, 3-(6,8-dimethylimidazo[1,2-a]pyrazin-2-yl)-7-[(3aR,6aS)-5-(2-hydroxyethyl)hexahydropyrrolo[3,4-c]pyrrol-2(1H)-yl]-2H-chromen-2-one], the melting point is 258 to 268 °C. For the same molecule, in data set [1], the EC1.5x (concentration giving 1.5-fold Smn protein increase) was below 300 nM and the “maximum fold (Fold) increase” value is “***** (fold increase >1.65)”. In addition, in data set [2] (setting [3]), the EC (1.5-fold) was below 0.1 µM.

Molecule `O=c1oc2cc(N3CCNCC3)cc(F)c2cc1-c1cn2cccnc2n1` [Compound 312, 5-fluoro-3-(imidazo[1,2-a]pyrimidin-2-yl)-7-(piperazin-1-yl)-2H-chromen-2-one] had a melting point of 298 to 302 °C. Also, the “maximum fold (Fold) increase” value in data set [1] was “** (fold increase between >1.2 and ≤1.35)”. Moreover, the EC (1.5-fold) in data set [2] (setting [3]) lay within 0.3 to 1 µM.

Take `CN1CCCN(c2ccc3cc(-c4nc(C(F)(F)F)cs4)c(=O)oc3c2)CC1` [Compound 238, 7-(4-methyl-1,4-diazepan-1-yl)-3-[4-(trifluoromethyl)-1,3-thiazol-2-yl]-2H-chromen-2-one]: the melting point is 218 to 225 °C. Further, the “maximum fold (Fold) increase” value in data set [1] was “* (maximum fold increase of ≤1.2)”. In addition, the EC (1.5-fold) in data set [2] (setting [3]) is 1 to 3 µM.

In turn, `Cc1cn2cc(-c3cc4ccc(OC[C@H]5CCCN5)cc4oc3=O)nc2c(C)n1` [Cpd 948, 3-(6,8-dimethylimidazo[1,2-a]pyrazin-2-yl)-7-[(2R)-pyrrolidin-2-ylmethoxy]-2H-chromen-2-one] yielded a melting point of 172 to 174 °C. In data set [1], the “maximum fold (Fold) increase” value was “*** (fold increase between >1.35 and ≤1.5)”. Also, the EC (1.5-fold) in data set [2] (setting [3]) is below 0.1 µM.

As for `C[C@@H]1CN(c2ccc3cc(-c4nc(C(F)(F)F)cs4)c(=O)oc3c2)C[C@H](C)N1` [Compound 236, 7-[(3R,5S)-3,5-dimethylpiperazin-1-yl]-3-[4-(trifluoromethyl)-1,3-thiazol-2-yl]-2H-chromen-2-one], the melting point fell in the range of 215 to 219 °C. Further, the “maximum fold (Fold) increase” value in data set [1] is “* (maximum fold increase of ≤1.2)”. The EC (1.5-fold) in data set [2] (setting [3]) fell in the range of 1 to 3 µM.

With `COc1c(F)cc(F)cc1-c1cc2ccc(N3CCNCC3)cc2oc1=O` [Compound 538, 3-(3,5-difluoro-2-methoxyphenyl)-7-(piperazin-1-yl)-2H-chromen-2-one], the melting point lay within 109 to 111 °C. In addition, the “maximum fold (Fold) increase” value in data set [1] is listed as “* (maximum fold increase of ≤1.2)”. For the same molecule, the EC (1.5-fold) in data set [2] (setting [3]) fell in the range of 3 to 30 µM.

`O=c1oc2cc(N3CCNCC3)ccc2cc1-c1cccc(F)c1` [Compound 26, 3-(3-fluorophenyl)-7-(piperazin-1-yl)-2H-chromen-2-one] returned a melting point of 148 to 150 °C. The “maximum fold (Fold) increase” value in data set [1] was “* (maximum fold increase of ≤1.2)”. The EC (1.5-fold) in data set [2] (24 h) was 1 to 3 µM.

In the case of `O=c1oc2cc(N3CCCNCC3)ccc2cc1-c1cc2ccccn2n1` [Compound 192, 7-(1,4-diazepan-1-yl)-3-(pyrazolo[1,5-a]pyridin-2-yl)-2H-chromen-2-one], the melting point fell in the range of 178 to 180 °C. The “maximum fold (Fold) increase” value in data set [1] is “** (fold increase between >1.2 and ≤1.35)”. The EC (1.5-fold) in data set [2] (setting [3]) was in the range of 0.3 to 1 µM.

`Cc1cn2cc(-c3cc4ccc(N5C[C@@H](C)N[C@@H](C)C5)cc4oc3=O)nc2cn1` [Compound 476, 7-[(3R,5S)-3,5-dimethylpiperazin-1-yl]-3-(6-methylimidazo[1,2-a]pyrazin-2-yl)-2H-chromen-2-one] yielded a melting point of 249 to 250 °C. In addition, in data set [1], the EC1.5x (concentration giving 1.5-fold Smn protein increase) was below 300 nM and the “maximum fold (Fold) increase” value is on record as “***** (fold increase >1.65)”. For the same molecule, in data set [2] (setting [3]), the EC (1.5-fold) was below 0.1 µM.

Turning to `C[C@@H]1CN(c2ccc3cc(-c4nc5c(F)cccc5o4)c(=O)oc3c2)C[C@H](C)N1` [Compound 39, 7-[(3R,5S)-3,5-dimethylpiperazin-1-yl]-3-(4-fluoro-1,3-benzoxazol-2-yl)-2H-chromen-2-one], the melting point was in the range of 242 to 243 °C. Also, in data set [1], the EC1.5x (concentration giving 1.5-fold Smn protein increase) lay within 3000 to 10000 nM; the “maximum fold (Fold) increase” value was “*** (fold increase between >1.35 and ≤1.5)”. The EC (1.5-fold) in data set [2] (setting [3]) is 0.3 to 1 µM.

The molecule `Cc1csc2nc(-c3cc4ccc(N5C[C@@H](C)N[C@@H](C)C5)cc4oc3=O)cn12` [Compound 182, 7-[(3R,5S)-3,5-dimethylpiperazin-1-yl]-3-(3-methylimidazo[2,1-b][1,3]thiazol-6-yl)-2H-chromen-2-one] showed a melting point of 211 to 215 °C. In addition, the “maximum fold (Fold) increase” value in data set [1] is “** (fold increase between >1.2 and ≤1.35)”. For the same molecule, the EC (1.5-fold) in data set [2] (setting [3]) was in the range of 1 to 3 µM.
